This is an account of results in patent US20050118678A1, “Modified polypeptides with therapeutic activity and methods of use” (priority 2003, published 2005).

For data set [1], the system named is drug-resistant strains of S. aureus (W73134 and M49780). The experiment in a line: Example 2 antibacterial effect on drug-resistant strains. It is filed as cell-based. To be noted: W73134 and M49780, FIG. 15 and 16.
Data set [2] concerns S. aureus W73134.
Data set [3] relates to B. anthracis. Conditions: cell survival by optical density at 650 nm.
Data set [4] relates to S. pyogenes Wilson. Conditions: pH 7.
Data set [5] relates to S. aureus M49780.
Data set [6] deals with E. coli 055:B5 LPS. The experiment in a line: Limulus amoebocyte lysate assay for LPS neutralization. It is filed as biochemical. To be noted: for IC50: 0.04 unit E. coli 055:B5 LPS, chromogenic QCL-1000 kit, read-out: LPS Binding (IC50); for LPS binding activity, fold higher than the SC4 peptide: relative to SC4. As to the method: Limulus amoebocyte lysate assay for lipopolysaccharide (LPS) neutralization. The ability of SC4 peptide and amphiphiles to neutralize endotoxin was measured using the chromogenic QCL-1000 kit from BioWhittaker, Inc. (Walkersville, Md). This method is quantitative for Gram-negative bacterial endotoxin (LPS) and uses peptide inhibition of LPS-mediated activation of a proenzyme as a measure of activity (Young et al., J. Clin. Invest. 51, 1790-1797 (1972)). Peptides of the appropriate concentration were mixed with Limulus amoebocyte lysate, 0.04 unit (0.01 nanogram (ng)) of E. coli 055:B5 LPS (SIGMA), and a colorless synthetic substrate (Ac-Ile-Glu-Ala-Arg-pNA) (SEQ ID NO: 18). Peptide binding to LPS was determined by monitoring enzymatic conversion of the substrate to yellow p-nitroaniline (pNA) via absorption at 410 nm. Endotoxin concentration was determined from the initial rate of enzyme activation. IC50 (concentration displaying 50% inhibition) values for LPS binding were determined by fitting to a dose-response curve.

The subject of data set [7] is E. coli IA2. To be noted: IA2, pH 7.
For data set [8], the system named is human red blood cells. Conditions: for Hemolysis (LD50): red cells of human, 1 h.
The test system of data set [9] is S. pyogenes Eaton. To be noted: pH 7.
Data set [10] has as its system MN8, Hoch, Knutson, FR1722, and RN6390. Description: Example 2 antibacterial effect on five Gram-positive strains. The data set is classed as cell-based. To be noted: FIG. 10-14.
The subject of data set [11] is S. aureus MN8. To be noted: MN8, pH 7.
Data set [12] deals with S. aureus MNHO. To be noted: pH 7.
In data set [13] the test system is E. coli J96. To be noted: J96, pH 7.
Data set [14] has as its system P. aeruginosa Type I. Conditions: pH 7.
For data set [15], the system named is erythrocytes (hemolytic activity). Conditions: cited from earlier work.
The subject of data set [16] is eukaryotic cell.
Data set [17] relates to bacteria. Description: Example 3 antibacterial activity of lauric acid conjugates. The data set is classed as cell-based. Conditions: lauric acid conjugate vs unconjugated peptide. The source says: The hemolytic activity of the KAK and AKK peptides and conjugates was low. […] Fatty acid conjugation will improve the usefulness of peptides as antimicrobial agents by enhancing their ability to form secondary structures upon interacting with the bacterial membranes.

Residues, ends and D or L forms follow the SMILES beside them. No end group written: not given here. *: point of attachment. Stearoyl = CCCCCCCCCCCCCCCCCC(=O)*; Lauroyl = CCCCCCCCCCCC(=O)*

On to `CCCCCCCCCCCCCCCCCC(=O)N[C@@H](CCCCN)C(=O)N[C@@H](CC(C)C)C(=O)N[C@@H](Cc1ccccc1)C(=O)N[C@@H](CCCCN)C(=O)N[C@@H](CCCNC(=N)N)C(=O)N[C@@H](Cc1c[nH]cn1)C(=O)N[C@@H](CC(C)C)C(=O)N[C@@H](CCCCN)C(=O)N[C@@H](Cc1c[nH]c2ccccc12)C(=O)N[C@@H](CCCCN)C(=O)N[C@H](C(=O)N[C@H](C(N)=O)[C@@H](C)CC)[C@@H](C)CC` [C18-SC4] (Stearoyl-KLFKRHLKWKII-NH2), for which the “Killing of drug-resistant S. aureus strains” value in data set [1] is “killed both drug-resistant strains”. Also, in [2], the “Bactericidal Activity (LD50) S. aureus W73134” value is 0.10 µM. Further, the “Bactericidal Activity (LD50) B. anthracis” value in data set [3] came out at 2.23 µM. The “Bactericidal Activity (LD50) S. pyogenes Wilson” value in data set [4] was 0.13 µM. Further, the “Bactericidal Activity (LD50) S. aureus M49780” value in data set [5] was 0.24 µM. Besides, in data set [6], the IC50 (as a rule, the concentration at which inhibition is half-maximal) was 82 nM and the “LPS binding activity, fold higher than the SC4 peptide” value is listed as about 6 fold. Further, in data set [7], the “Bactericidal Activity (LD50) E. coli IA2” value stood at 0.19 µM. In data set [8], the “Hemolytic activity, fold more hemolytic than C12-SC4” value is on record as “roughly 3 fold” and the “Hemolysis (LD50)” value was 1.9 µM. In addition, in [9], the “Bactericidal Activity (LD50) S. pyogenes Eaton” value was 0.11 µM. Besides, the “Increase in antibacterial effect relative to SC-4” value in data set [10] is reported as “ten to twenty fold increases”. Moreover, the “Bactericidal Activity (LD50) S. aureus MN8” value in data set [11] was found to be 0.11 µM. Also, the “Bactericidal Activity (LD50) S. aureus MNHO” value in data set [12] was 0.068 µM. The “Bactericidal Activity (LD50) E. coli J96” value in data set [13] came to 0.23 µM. Also, the “Bactericidal Activity (LD50) P. aeruginosa Type I” value in data set [14] was 0.042 µM.

As for `CC[C@H](C)[C@H](NC(=O)[C@@H](NC(=O)[C@H](CCCCN)NC(=O)[C@H](Cc1c[nH]c2ccccc12)NC(=O)[C@H](CCCCN)NC(=O)[C@H](CC(C)C)NC(=O)[C@H](Cc1c[nH]cn1)NC(=O)[C@H](CCCNC(=N)N)NC(=O)[C@H](CCCCN)NC(=O)[C@H](Cc1ccccc1)NC(=O)[C@H](CC(C)C)NC(=O)[C@@H](N)CCCCN)[C@@H](C)CC)C(N)=O` [SC4, KLFKRHLKWKII, reference compound] (H-KLFKRHLKWKII-NH2), the “Bactericidal Activity (LD50) S. aureus W73134” value in data set [2] was 2.3 µM. Also, in data set [3], the “Bactericidal Activity (LD50) B. anthracis” value is over 15 µM. In addition, the “Bactericidal Activity (LD50) S. pyogenes Wilson” value in [4] is over 1.0 µM. Further, in data set [5], the “Bactericidal Activity (LD50) S. aureus M49780” value was 2.0 µM. The “Bactericidal Activity (LD50) E. coli IA2” value in data set [7] worked out at 0.21 µM. Besides, in [8], the “Concentration up to which little hemolytic activity was demonstrated” value was over 400 µM and the “Hemolysis (LD50)” value is over 375 µM. Also, in [15], the “Concentration below which no hemolytic activity is shown” value was at least 100 µM. For the same compound, the “Bactericidal Activity (LD50) S. pyogenes Eaton” value in [9] was over 2.0 µM. The “Bactericidal Activity (LD50) S. aureus MN8” value in [11] stood at 1.3 µM. Besides, in data set [12], the “Bactericidal Activity (LD50) S. aureus MNHO” value stood at 2.3 µM. Further, the “Bactericidal Activity (LD50) E. coli J96” value in [13] amounted to 0.12 µM. The “Bactericidal Activity (LD50) P. aeruginosa Type I” value in [14] came to 0.028 µM.

“conjugated KAK: KAK peptide YG[AKAKAAKA](2) conjugated with lauric acid (YGAKAKAAKA; numbers in words are those of the source; also: dimer [AKAKAAKA](2), lauric acid conjugate, place not given here)”: the Hemolytic activity entry in data set [16] is “low”.

Turning to `C[C@H](NC(=O)[C@H](C)NC(=O)[C@H](CCCCN)NC(=O)[C@H](C)NC(=O)[C@H](C)NC(=O)[C@H](CCCCN)NC(=O)[C@H](CCCCN)NC(=O)[C@H](C)NC(=O)[C@H](C)NC(=O)[C@H](CCCCN)NC(=O)[C@H](C)NC(=O)[C@H](C)NC(=O)[C@H](CCCCN)NC(=O)[C@H](CCCCN)NC(=O)[C@H](C)NC(=O)[C@H](C)NC(=O)CNC(=O)[C@@H](N)Cc1ccc(O)cc1)C(=O)O` [AKK, YGAA[KKAAKAA](2), reference compound] (H-YGAAKKAAKAAKKAAKAA-OH), the Hemolytic activity entry in [16] is recorded as “low”.

For `C[C@H](NC(=O)[C@H](CCCCN)NC(=O)[C@H](C)NC(=O)[C@H](C)NC(=O)[C@H](CCCCN)NC(=O)[C@H](C)NC(=O)[C@H](CCCCN)NC(=O)[C@H](C)NC(=O)[C@H](C)NC(=O)[C@H](CCCCN)NC(=O)[C@H](C)NC(=O)[C@H](C)NC(=O)[C@H](CCCCN)NC(=O)[C@H](C)NC(=O)[C@H](CCCCN)NC(=O)[C@H](C)NC(=O)CNC(=O)[C@@H](N)Cc1ccc(O)cc1)C(=O)O` [KAK, YG[AKAKAAKA](2), reference compound] (H-YGAKAKAAKAAKAKAAKA-OH), the Hemolytic activity result in [16] is on record as “low”.

In the case of “conjugated AKK: AKK peptide YGAA[KKAAKAA](2) conjugated with lauric acid (YGAAKKAAKAA; numbers in words are those of the source; also: dimer [KKAAKAA](2), lauric acid conjugate, place not given here)”, the “Antimicrobial activity relative to unconjugated peptide” value in data set [17] was “increased antimicrobial activity”. For the same compound, the Hemolytic activity entry in [16] is “low”.

Regarding `CCCCCCCCCCCC(=O)N[C@@H](CCCCN)C(=O)N[C@@H](CC(C)C)C(=O)N[C@@H](Cc1ccccc1)C(=O)N[C@@H](CCCCN)C(=O)N[C@@H](CCCNC(=N)N)C(=O)N[C@@H](Cc1c[nH]cn1)C(=O)N[C@@H](CC(C)C)C(=O)N[C@@H](CCCCN)C(=O)N[C@@H](Cc1c[nH]c2ccccc12)C(=O)N[C@@H](CCCCN)C(=O)N[C@H](C(=O)N[C@H](C(N)=O)[C@@H](C)CC)[C@@H](C)CC` [C12-SC4] (Lauroyl-KLFKRHLKWKII-NH2), the “Killing of drug-resistant S. aureus strains” value in [1] is listed as “killed both drug-resistant strains”. For the same compound, the “Bactericidal Activity (LD50) S. aureus W73134” value in data set [2] amounted to 0.62 µM. For the same compound, in [3], the “Bactericidal Activity (LD50) B. anthracis” value came out at 3.25 µM. Further, the “Bactericidal Activity (LD50) S. pyogenes Wilson” value in data set [4] was 0.16 µM. Moreover, the “Bactericidal Activity (LD50) S. aureus M49780” value in data set [5] worked out at 0.66 µM. Besides, in [6], the IC50 was 230 nM and the “LPS binding activity, fold higher than the SC4 peptide” value is given as “approximately 3 fold”. The “Bactericidal Activity (LD50) E. coli IA2” value in data set [7] amounted to 0.079 µM. For the same compound, the “Hemolysis (LD50)” value in data set [8] came to 6.2 µM. Further, the “Bactericidal Activity (LD50) S. pyogenes Eaton” value in data set [9] came to 0.066 µM. Besides, the “Bactericidal Activity (LD50) S. aureus MN8” value in [11] was determined as 0.68 µM. The “Antimicrobial activity relative to unconjugated peptide” value in [17] was “increased antimicrobial activity”. Further, the “Bactericidal Activity (LD50) S. aureus MNHO” value in [12] was determined as 0.34 µM. Besides, the “Bactericidal Activity (LD50) E. coli J96” value in data set [13] came to 0.077 µM. Moreover, the “Change in hemolytic activity on fatty acid conjugation” value in data set [16] is given as “large increase in hemolytic activity”. The “Bactericidal Activity (LD50) P. aeruginosa Type I” value in data set [14] amounted to 0.035 µM.
